Legend:
Type in all cases: cell-based
[1] = system: HCT-116 colorectal cancer cell line; assay: CCK-8 proliferation inhibition; settings: concentration of 30 μM, 72 hours, CCK-8; for HCT116 inhibition rate/%: 30 µM
Method in brief: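 2000 cells/well, McCoy's 5A + 10% newborn bovine serum; overnight attach, 37° C./5% CO2. Cpd from DMSO stock diluted in medium, 72 h. Readout: CCK-8 (1:10). Ctrl 1‰ DMSO.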

[2] = system: Enterococcus faecium (EFM); assay: MIC, two-fold agar dilution (CLSI), clinical isolates
Method in brief: (§1)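 MIC values come from two-fold agar dilution run per CLSI antimicrobial susceptibility testing procedure.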

[3] = system: methicillin-resistant Staphylococcus aureus (MRSA); assay: as above
Method in brief: as §1

[4] = system: methicillin-resistant Staphylococcus epidermidis (MRSE); assay: as above
Method in brief: as §1

[5] = system: methicillin-sensitive Staphylococcus epidermidis (MSSE); assay: as above
Method in brief: as §1

[6] = system: Streptococcus pneoumoniae (SPN); assay: as above
Method in brief: as §1

[7] = system: methicillin-sensitive Staphylococcus aureus (MSSA); assay: as above
Method in brief: as §1

[8] = system: Enterococcus faecalis (EFA); assay: as above
Method in brief: as §1

[9] = system: Escherichia coli (including ESBLs, non-ESBLs); assay: as above
Method in brief: as §1

[10] = system: Moraxella catarrhalis (BCA); assay: as above
Method in brief: as §1

[11] = system: BEL-7402 liver cancer cell line; assay: CCK-8 proliferation inhibition; settings: concentration of 30 μM; for Inhibition of proliferation, Liver cancer BEL-7402: 72 hours, 30 µM
Method in brief: (§2)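 Plating at 2000 cells/well, then incubation overnight at 37° C. Next, a range of compound concentrations for 72 hours (control 1‰ DMSO). Finally, medium decanted and CCK-8 diluted 1:10 added.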

[12] = system: A549 lung cancer cell line; assay: CCK-8 proliferation inhibition; settings: concentration of 30 μM; for inhibition at 30 µM: Homo sapiens, A549, 72 h; for Inhibition of proliferation, Lung cancer A549: 72 hours, 30 µM
Method in brief: as §2

[13] = system: MGC-803 gastric cancer cell line; assay: CCK-8 proliferation inhibition; settings: concentration of 30 μM; for inhibition at 30 µM: Homo sapiens, MGC-803, 72 h
Method in brief: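 CCK-8 read-out after 72 h drug exposure; 2000 cells/well, overnight pre-culture (37° C, 5% CO2); vehicle 1‰ DMSO. Media: PC3 F12; MGC-803/Jurkat 1640; MCF-7 DMEM high glucose; all +10% newborn bovine serum, 1% antibiotics.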

SMILES: CCCC[C@H](CC(=O)NO)C(=O)N1CC2(CCCC2)C[C@H]1C(=O)Nc1ccc(F)cn1 [Example 78, (S)—N-(5-fluoropyridin-2-yl)-2-((R)-2-(2-(hydroxyamino)-2-oxoethyl)hexanoyl)-2-spiro[4.4]nonane-3-carboxamide]
- inhibition at 30 µM ([1]; Homo sapiens, HCT-116, 72 h, read-out: HCT116 inhibition rate/%): > 50%
- HCT116 inhibition rate/% [1]: 52%
- Anti-bacterial activity (MIC) ([2]; strain EFM 15-1): > 32 µg/mL
- Anti-bacterial activity (MIC) ([2]; strain EFM 15-2): > 32 µg/mL
- Anti-bacterial activity (MIC) ([2]; strain EFM 15-3): > 32 µg/mL
- Anti-bacterial activity (MIC) ([2]; strain EFM 15-4): 2 µg/mL
- Anti-bacterial activity (MIC) ([2]; strain EFM 15-5): 0.25 µg/mL
- Anti-bacterial activity (MIC) ([2]; strain EFM 15-6): 1 µg/mL
- Anti-bacterial activity (MIC), strain MRSA 15-1 ([3]; clinical isolate MRSA 15-1): 0.06 µg/mL
- Anti-bacterial activity (MIC), strain MRSA 15-2 ([3]; clinical isolate MRSA 15-2): 0.5 µg/mL
- Anti-bacterial activity (MIC), strain MRSA 15-3 ([3]; clinical isolate MRSA 15-3): 0.125 µg/mL
- Anti-bacterial activity (MIC), strain MRSA 15-4 ([3]; clinical isolate MRSA 15-4): 0.5 µg/mL
- Anti-bacterial activity (MIC), strain MRSE 15-1 ([4]; clinical isolate MRSE 15-1): 0.125 µg/mL
- Anti-bacterial activity (MIC), strain MRSE 15-2 ([4]; clinical isolate MRSE 15-2): 1 µg/mL
- Anti-bacterial activity (MIC), strain MRSE 15-3 ([4]; clinical isolate MRSE 15-3): 1 µg/mL
- Anti-bacterial activity (MIC), strain MRSE 15-7 ([4]; clinical isolate MRSE 15-7): 1 µg/mL
- Anti-bacterial activity (MIC), strain MSSE 15-3 ([5]; clinical isolate MSSE 15-3): 0.25 µg/mL
- Anti-bacterial activity (MIC), strain MSSE 15-4 ([5]; clinical isolate MSSE 15-4): 0.25 µg/mL
- Anti-bacterial activity (MIC), strain MSSE 15-5 ([5]; clinical isolate MSSE 15-5): 0.25 µg/mL
- Anti-bacterial activity (MIC), strain MSSE 15-6 ([5]; clinical isolate MSSE 15-6): 0.03 µg/mL
- Anti-bacterial activity (MIC) ([6]; strain SPN 16-2): 0.03 µg/mL
- Anti-bacterial activity (MIC) ([6]; strain SPN 16-4): 0.25 µg/mL
- Anti-bacterial activity (MIC), strain MSSA 15-3 ([7]; clinical isolate MSSA 15-3): 0.5 µg/mL
- Anti-bacterial activity (MIC), strain MSSA 15-4 ([7]; clinical isolate MSSA 15-4): 0.125 µg/mL
- Anti-bacterial activity (MIC), strain MSSA 15-5 ([7]; clinical isolate MSSA 15-5): 0.03 µg/mL
- Anti-bacterial activity (MIC), strain MSSA 15-6 ([7]; clinical isolate MSSA 15-6): > 32 µg/mL
- Anti-bacterial activity (MIC) ([8]; strain EFA 15-1): > 32 µg/mL
- Anti-bacterial activity (MIC) ([8]; strain EFA 15-2): > 32 µg/mL
- Anti-bacterial activity (MIC) ([8]; strain EFA 15-3): > 32 µg/mL
- Anti-bacterial activity (MIC) ([8]; strain EFA 15-4): > 32 µg/mL
- Anti-bacterial activity (MIC) ([8]; strain EFA 15-5): > 32 µg/mL
- Anti-bacterial activity (MIC) ([8]; strain EFA 15-6): > 32 µg/mL
- Anti-bacterial activity (MIC) ([8]; strain EFA 15-9): > 32 µg/mL
- Anti-bacterial activity (MIC), strain ECO+ 15-1 ([9]; clinical isolate ECO+ 15-1): 16 µg/mL
- Anti-bacterial activity (MIC), strain ECO+ 15-2 ([9]; clinical isolate ECO+ 15-2): > 32 µg/mL
- Anti-bacterial activity (MIC), strain ECO+ 15-3 ([9]; clinical isolate ECO+ 15-3): > 32 µg/mL
- Anti-bacterial activity (MIC), strain ECO+ 15-4 ([9]; clinical isolate ECO+ 15-4): > 32 µg/mL
- Anti-bacterial activity (MIC), strain ECO− 15-1 ([9]; clinical isolate ECO− 15-1): > 32 µg/mL
- Anti-bacterial activity (MIC), strain ECO− 15-2 ([9]; clinical isolate ECO− 15-2): > 32 µg/mL
- Anti-bacterial activity (MIC), strain ECO− 15-3 ([9]; clinical isolate ECO− 15-3): > 32 µg/mL
- Anti-bacterial activity (MIC), strain ECO− 15-4 ([9]; clinical isolate ECO− 15-4): > 32 µg/mL
- Anti-bacterial activity (MIC) ([10]; strain BCA 14-1): 0.5 µg/mL
- Anti-bacterial activity (MIC) ([10]; strain BCA 14-4): 1 µg/mL
- Anti-bacterial activity (MIC) ([10]; strain BCA 14-5): 1 µg/mL
- Anti-bacterial activity (MIC) ([10]; strain BCA 14-6): 0.5 µg/mL
- Anti-bacterial activity (MIC) ([10]; strain BCA 14-7): 0.5 µg/mL
- Anti-bacterial activity (MIC) ([10]; strain BCA 14-8): 0.25 µg/mL
- Anti-bacterial activity (MIC) ([10]; strain BCA 14-10): 0.25 µg/mL
- inhibition at 30 µM ([11]; Homo sapiens, Bel-7402, 72 h): > 50%
- Inhibition of proliferation, Liver cancer BEL-7402 [11]: 67%
- inhibition at 30 µM [12]: > 50%
- Inhibition of proliferation, Lung cancer A549 [12]: 54%
- inhibition at 30 µM [13]: 44%

SMILES: CCCC[C@H](CC(=O)NO)C(=O)N1CC2(CCCC2)C[C@H]1C(=O)Nc1ncc(C)s1 [Example 79, (S)-2-((R)-2-(2-(hydroxyamino)-2-oxoethyl)hexanoyl)-N-(5-methylthiazol-2-yl)-2-azaspiro[4.4]nonane-3-amide]
- HCT116 inhibition rate/% [1]: 75%
- Anti-bacterial activity (MIC) ([2]; strain EFM 15-1): 32 µg/mL
- Anti-bacterial activity (MIC) ([2]; strain EFM 15-2): 32 µg/mL
- Anti-bacterial activity (MIC) ([2]; strain EFM 15-3): 32 µg/mL
- Anti-bacterial activity (MIC) ([2]; strain EFM 15-4): 1 µg/mL
- Anti-bacterial activity (MIC) ([2]; strain EFM 15-5): 1 µg/mL
- Anti-bacterial activity (MIC) ([2]; strain EFM 15-6): 1 µg/mL
- Anti-bacterial activity (MIC) ([3]; strain MRSA 15-1): 0.25 µg/mL
- Anti-bacterial activity (MIC) ([3]; strain MRSA 15-2): 0.25 µg/mL
- Anti-bacterial activity (MIC) ([3]; strain MRSA 15-3): 0.125 µg/mL
- Anti-bacterial activity (MIC) ([3]; strain MRSA 15-4): 0.25 µg/mL
- Anti-bacterial activity (MIC) ([4]; strain MRSE 15-1): 0.25 µg/mL
- Anti-bacterial activity (MIC) ([4]; strain MRSE 15-2): 2 µg/mL
- Anti-bacterial activity (MIC) ([4]; strain MRSE 15-3): 2 µg/mL
- Anti-bacterial activity (MIC) ([4]; strain MRSE 15-7): 2 µg/mL
- Anti-bacterial activity (MIC) ([5]; strain MSSE 15-3): 0.25 µg/mL
- Anti-bacterial activity (MIC) ([5]; strain MSSE 15-4): 1 µg/mL
- Anti-bacterial activity (MIC) ([5]; strain MSSE 15-5): 1 µg/mL
- Anti-bacterial activity (MIC) ([5]; strain MSSE 15-6): 0.03 µg/mL
- Anti-bacterial activity (MIC) ([6]; strain SPN 16-2): 0.06 µg/mL
- Anti-bacterial activity (MIC) ([6]; strain SPN 16-4): 0.25 µg/mL
- Anti-bacterial activity (MIC) ([7]; strain MSSA 15-3): 0.5 µg/mL
- Anti-bacterial activity (MIC) ([7]; strain MSSA 15-4): 0.125 µg/mL
- Anti-bacterial activity (MIC) ([7]; strain MSSA 15-5): 0.125 µg/mL
- Anti-bacterial activity (MIC) ([7]; strain MSSA 15-6): > 32 µg/mL
- Anti-bacterial activity (MIC) ([8]; strain EFA 15-1): 32 µg/mL
- Anti-bacterial activity (MIC) ([8]; strain EFA 15-2): 32 µg/mL
- Anti-bacterial activity (MIC) ([8]; strain EFA 15-3): 32 µg/mL
- Anti-bacterial activity (MIC) ([8]; strain EFA 15-4): 32 µg/mL
- Anti-bacterial activity (MIC) ([8]; strain EFA 15-5): 32 µg/mL
- Anti-bacterial activity (MIC) ([8]; strain EFA 15-6): 32 µg/mL
- Anti-bacterial activity (MIC) ([8]; strain EFA 15-9): 32 µg/mL
- Anti-bacterial activity (MIC) ([9]; strain ECO+ 15-1): 32 µg/mL
- Anti-bacterial activity (MIC) ([9]; strain ECO+ 15-2): > 32 µg/mL
- Anti-bacterial activity (MIC) ([9]; strain ECO+ 15-3): > 32 µg/mL
- Anti-bacterial activity (MIC) ([9]; strain ECO+ 15-4): > 32 µg/mL
- Anti-bacterial activity (MIC) ([9]; strain ECO− 15-1): > 32 µg/mL
- Anti-bacterial activity (MIC) ([9]; strain ECO− 15-2): > 32 µg/mL
- Anti-bacterial activity (MIC) ([9]; strain ECO− 15-3): > 32 µg/mL
- Anti-bacterial activity (MIC) ([9]; strain ECO− 15-4): > 32 µg/mL
- Anti-bacterial activity (MIC) ([10]; strain BCA 14-1): 0.25 µg/mL
- Anti-bacterial activity (MIC) ([10]; strain BCA 14-4): 1 µg/mL
- Anti-bacterial activity (MIC) ([10]; strain BCA 14-5): 0.25 µg/mL
- Anti-bacterial activity (MIC) ([10]; strain BCA 14-6): 1 µg/mL
- Anti-bacterial activity (MIC) ([10]; strain BCA 14-7): 0.5 µg/mL
- Anti-bacterial activity (MIC) ([10]; strain BCA 14-8): 0.5 µg/mL
- Anti-bacterial activity (MIC) ([10]; strain BCA 14-10): 0.25 µg/mL
- Inhibition of proliferation, Liver cancer BEL-7402 [11]: 77%
- inhibition at 30 µM [12]: > 50%
- Inhibition of proliferation, Lung cancer A549 [12]: 50%
- inhibition at 30 µM [13]: > 50%
- Inhibition of proliferation, Gastric cancer MGC-803 ([13]; 72 hours, 30 µM): 54%
